Experimental data reported in paper PMC8560763, “Roles of metal ions in the selective inhibition of oncogenic variants of isocitrate dehydrogenase 1” (Communications Biology, 2021).
Several values for one entry are separate records, joined by “and”; a condition that tells them apart may be missing. Equal values may be shown once.

Assays:
[1] = molecular target: T1, wt IDH1 (Homo sapiens, UniProt O75874); assay: Absorbance assay: effect of metal ions on catalysis and inhibition of wt IDH1; assay type: biochemical; settings: for inhibition by metal ion: wt IDH1, metal ions 10 mM in the presence of 10 mM Mg^2+
T1 construct: made in house; host or cells: Escherichia coli BL21(DE3) pLyS
T1 sequence (O75874 2-414): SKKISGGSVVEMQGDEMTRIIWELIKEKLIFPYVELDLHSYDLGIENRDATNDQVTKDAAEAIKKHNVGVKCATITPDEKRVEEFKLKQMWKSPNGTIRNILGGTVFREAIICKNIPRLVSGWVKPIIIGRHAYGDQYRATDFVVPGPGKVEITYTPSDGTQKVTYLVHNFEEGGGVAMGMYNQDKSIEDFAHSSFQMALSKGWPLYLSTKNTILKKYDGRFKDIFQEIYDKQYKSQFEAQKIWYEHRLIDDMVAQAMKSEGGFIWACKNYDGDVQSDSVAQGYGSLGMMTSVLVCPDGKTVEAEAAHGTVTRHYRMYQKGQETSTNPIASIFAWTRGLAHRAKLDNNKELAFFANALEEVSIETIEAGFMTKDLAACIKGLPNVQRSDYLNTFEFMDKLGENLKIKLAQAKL
Protocol: Inhibition assays of wt or R132H IDH1 with metal ions were conducted with a 12 min pre-incubation of metal ions (25 µL, final concentration 10 mM) and enzyme (25 µL) before the addition of substrate (25 µL) and cofactor (25 µL). […] The difference in absorbance, ΔA340, in the linear range of the reaction profile was converted to % residual activity with the DMSO control being the 100% residual activity reference.

[2] = molecular target: T1, wt IDH1; assay: Absorbance assay (NADPH, 340 nm): kinetics of oxidative reaction (isocitrate to 2OG) by wt IDH1; assay type: biochemical
Protocol: (§1) All experiments were performed in (at least) triplicate.
(§2) KM values were determined by varying concentrations of the substrate/cofactor under investigation while maintaining the concentrations of other components using standard conditions. […] Graphs were fitted using GraphPad Prism to obtain kinetic parameters.

[3] = molecular target: T1, wt IDH1; assay: Differential scanning fluorimetry (DSF) thermal shift, wt IDH1; assay type: binding; settings: 50 mM Tris-HCl, pH 7.5; for thermal stabilisation (shift in Tm): wt IDH1, divalent metal ions (5 mM); for thermal stabilisation by cosubstrates: wt IDH1, 0.125—4 mM
Protocol: Thermal shift experiments were carried out using Sypro Orange dye and a CFX96 Touch^TM Real-Time PCR Detection System (Bio-Rad)[69]. […] The standard assay buffer contains 50 mM Tris-HCl at pH 7.5. Various concentrations of substrates were mixed with IDH1 for thermal stabilisation studies. […] Bio-Rad CFX Manager was used to determine the melting temperature, Tm.

[4] = molecular target: T1, wt IDH1; assay: 1H NMR reaction monitoring, wt IDH1; assay type: biochemical; settings: 1H NMR (700 MHz), NADP+, 10 mM MgCl2
Protocol: Reaction monitoring employed the same spectrometer with a 5-mm inverse TCI cryoprobe using 5 mm tubes (Norell). Data were recorded with a relaxation delay of 2 s and 32 scans, employing a pulse sequence with water suppression (^1H excitation sculpting suppression with perfect echo using a 2 ms Sinc selective inversion pulse).

[5] = molecular target: T1, wt IDH1; assay: CPMG-edited 1H NMR ligand binding, wt IDH1; settings: for weakening of D-isocitrate binding to wt IDH1: with Mg^2+ or Ca^2+ (10 mM); for displacement of D-isocitrate from wt IDH1 / binding to wt IDH1: without metal ions; for displacement of D-isocitrate from wt IDH1: inhibitor 50 µM, D-isocitrate 50 µM, wt IDH1 6.25 µM; for binding to wt IDH1: DSF and NMR
Protocol: Additional solvent presaturation was applied for 2 s. The assay mixture contains 160 µL of a 50 µM solution of the compound of interest ± 10 mM metal chloride salts in 50 mM Tris-D11-HCl in 90% H2O/10% D2O at pH 7.5. […] Data were processed with the TopSpin 3.1 software.

[6] = molecular target: T1, wt IDH1; assay: Non-denaturing protein MS, wt IDH1; assay type: binding; settings: wt IDH1 dimer with two NADPHs bound
Protocol: Non-denaturing mass spectra were obtained using a quadrupole time-of-flight mass spectrometer (Synapt HD MS, Waters, Wilmslow, Manchester, UK)[71],[72]. […] Protein concentrations were measured using a Nanodrop spectrometer (Thermo Scientific™ NanoDrop™ One). […] The solution was then sprayed through a nozzle in a Nanomate chip at a spray voltage of 1.8–2.0 kV (spray backing gas pressure 0.8–1.0 psi, inlet pressure 3.8 mbar). […] For promoting collision-induced dissociation of the substrate from its complex with IDH1, a higher cone voltage (200 V) was used. The rest of the voltages and pressures in the mass spectrometer were adjusted for the best resolution and minimum fragmentation. Data collection and analysis were carried out using the Waters MassLynx software. Mass spectra were calibrated externally using the CsI solution to produce CsI cluster ions.

[7] = molecular target: T1, wt IDH1; assay: Absorbance assay: kinetics of reductive reaction (2OG to isocitrate) by wt IDH1; assay type: biochemical
Protocol: as §1, §2

[8] = wt IDH1, oxidative reaction with Mn^2+ (10 mM MnCl2)
[9] = wt IDH1, reductive reaction (2OG to isocitrate) with Mg^2+, 100 mM NaHCO3

[Ba+2].[Cl-].[Cl-] [Ba^2+, BaCl2]
inhibition by metal ion [1]: inhibiting

[Cl-].[K+] [K^+]
inhibition by metal ion [1]: no effect

[Cl-].[Cl-].[Sr+2] [Sr^2+, SrCl2]
inhibition by metal ion [1]: inhibiting

[Cl][Mn][Cl] [MnCl2]
Velocity ([2]; Fig. S3c, [MnCl2] 1.16415 μM): 0.08423 µM/s and 0.08186 µM/s and 0.1169 µM/s | Velocity ([2]; Fig. S3c, [MnCl2] 1.86265 μM): 0.2269 µM/s and 0.1979 µM/s and 0.204 µM/s | Velocity ([2]; Fig. S3c, [MnCl2] 4.76837 μM): 0.3206 µM/s and 0.2772 µM/s and 0.338 µM/s | Velocity ([2]; Fig. S3c, [MnCl2] 7.62939 μM): 0.3506 µM/s and 0.2861 µM/s and 0.3632 µM/s | Velocity ([2]; Fig. S3c, [MnCl2] 12.207 μM): 0.3785 µM/s and 0.3498 µM/s | Velocity ([2]; Fig. S3c, [MnCl2] 19.5312 μM): 0.3561 µM/s and 0.3846 µM/s | Velocity ([2]; Fig. S3c, [MnCl2] 31.25 μM): 0.3922 µM/s and 0.3424 µM/s and 0.3875 µM/s | Velocity ([2]; Fig. S3c, [MnCl2] 50 μM): 0.4096 µM/s and 0.3893 µM/s and 0.3938 µM/s | kcat ([2]; wt IDH1, oxidative reaction with Mn^2+): 81 ± 11 s⁻¹ | Km [2, 8]: 2 ± 0.3 µM | Vmax [2, 8]: 416 ± 13 nM/s | thermal stabilisation (shift in Tm) [3]: 2.9 °C | effect of metal ion on catalysis ([1]; wt IDH1, metal ions 10 mM): promoted

O=C(O)CC(C(=O)O)C(O)C(=O)O (racemic) [DL-isocitrate]
Km ([2]; wt IDH1, oxidative reaction with Mg^2+ (10 mM MgCl2)): 38 ± 6 µM | Km [2, 8]: 35 ± 4 µM

[Cl-].[Cs+] [Cs^+]
inhibition by metal ion [1]: no effect

[Cl-].[Li+] [Li^+]
inhibition by metal ion [1]: no effect

[Na+] [Na^+]
inhibition by metal ion [1]: no effect

O=C(O)C[C@H](C(=O)O)[C@@H](O)C(=O)O [L-isocitrate]
conversion by wt IDH1 [4]: neither a substrate nor an inhibitor

COc1c(C)cc(NC(=O)c2nn(Cc3ccc(F)cc3)c3c2CN(C(=O)c2ccc[nH]2)C[C@]3(C)C(N)=O)cc1C [GSK864]
weakening of D-isocitrate binding to wt IDH1 [5]: not | displacement of D-isocitrate from wt IDH1 [5]: partially displaced | binding stoichiometry [6]: two inhibitors per IDH1 dimer

[Cl][Cd][Cl] [Cd^2+, CdCl2]
inhibition by metal ion [1]: inhibitory

O=C(O)CCC(O)C(=O)O (stereo not shown) [2HG, 2-hydroxyglutarate]
binding to wt IDH1 [5]: not observed to bind

[Ca+2].[Cl-].[Cl-] [Ca^2+, CaCl2]
thermal stabilisation (shift in Tm) [3]: 3.2 °C | inhibition by metal ion [1]: inhibiting

N#Cc1ccnc(N2C(=O)CC[C@H]2C(=O)N(c2cncc(F)c2)[C@H](C(=O)NC2CC(F)(F)C2)c2ccccc2Cl)c1 [AG-120, Ivosidenib]
weakening of D-isocitrate binding to wt IDH1 [5]: not | displacement of D-isocitrate from wt IDH1 [5]: partially displaced | binding stoichiometry [6]: one inhibitor per IDH1 dimer

[Cl][Ni][Cl] [Ni^2+, NiCl2]
inhibition by metal ion [1]: inhibitory

[Cl-].[Cl-].[Zn+2] [Zn^2+, ZnCl2]
inhibition by metal ion [1]: inhibitory

O=C(O)CNC(=O)C(=O)O [NOG, N-oxalylglycine]
binding to wt IDH1 [5]: bind weakly

[Cl-].[Cl-].[Co+2] [Co^2+, CoCl2]
inhibition by metal ion [1]: inhibitory

NC(=O)C1=CN([C@@H]2O[C@H](COP(=O)(O)OP(=O)(O)OC[C@H]3O[C@@H](n4cnc5c(N)ncnc54)[C@H](OP(=O)(O)O)[C@@H]3O)[C@@H](O)[C@H]2O)C=CC1 [NADPH]
Velocity ([7]; Fig. S2f, [NADPH] 31.25 μM): 0.06247 µM/s and 0.06738 µM/s and 0.04685 µM/s | Velocity ([7]; Fig. S2f, [NADPH] 62.5 μM): 0.08774 µM/s and 0.07774 µM/s and 0.04633 µM/s | Velocity ([7]; Fig. S2f, [NADPH] 250 μM): 0.1446 µM/s and 0.1585 µM/s and 0.1383 µM/s | Velocity ([7]; Fig. S2f, [NADPH] 500 μM): 0.1648 µM/s and 0.2053 µM/s | thermal stabilisation by cosubstrates [3]: stabilise

NC(=O)c1ccc[n+](C2OC(COP(=O)(O)OP(=O)([O-])OCC3OC(n4cnc5c(N)ncnc54)C(OP(=O)(O)O)C3O)C(O)C2O)c1 (stereo not shown) [NADP^+]
Velocity ([2]; Fig. S2b, [NADP+] 9.375 μM): 0.05756 µM/s and 0.05177 µM/s and 0.06247 µM/s | Velocity ([2]; Fig. S2b, [NADP+] 18.75 μM): 0.1158 µM/s and 0.09809 µM/s and 0.09195 µM/s | Velocity ([2]; Fig. S2b, [NADP+] 37.5 μM): 0.1572 µM/s and 0.1441 µM/s and 0.152 µM/s | Velocity ([2]; Fig. S2b, [NADP+] 75 μM): 0.1869 µM/s and 0.1658 µM/s and 0.2058 µM/s | Velocity ([2]; Fig. S2b, [NADP+] 150 μM): 0.2085 µM/s and 0.1992 µM/s and 0.219 µM/s | Velocity ([2]; Fig. S2b, [NADP+] 300 μM): 0.2511 µM/s and 0.2272 µM/s and 0.239 µM/s | Velocity ([2]; Fig. S2b, [NADP+] 600 μM): 0.245 µM/s and 0.2229 µM/s and 0.192 µM/s | Velocity ([2]; Fig. S2b, [NADP+] 1200 μM): 0.2522 µM/s and 0.2318 µM/s and 0.2402 µM/s | Velocity ([2]; Fig. S2b, [NADP+] 2400 μM): 0.2325 µM/s and 0.2464 µM/s and 0.2378 µM/s | Velocity ([2]; Fig. S3b, MnCl2 as metal, [NADP+] 2.34375 μM): 0.01474 µM/s and 0.01079 µM/s and 0.008423 µM/s | Velocity ([2]; Fig. S3b, MnCl2 as metal, [NADP+] 4.6875 μM): 0.04185 µM/s and 0.03843 µM/s and 0.02737 µM/s | Velocity ([2]; Fig. S3b, MnCl2 as metal, [NADP+] 9.375 μM): 0.08765 µM/s and 0.07107 µM/s and 0.0637 µM/s | Velocity ([2]; Fig. S3b, MnCl2 as metal, [NADP+] 18.75 μM): 0.1629 µM/s and 0.1316 µM/s and 0.1234 µM/s | Velocity ([2]; Fig. S3b, MnCl2 as metal, [NADP+] 37.5 μM): 0.2419 µM/s and 0.1971 µM/s and 0.1732 µM/s | Velocity ([2]; Fig. S3b, MnCl2 as metal, [NADP+] 75 μM): 0.3032 µM/s and 0.278 µM/s and 0.2851 µM/s | Velocity ([2]; Fig. S3b, MnCl2 as metal, [NADP+] 150 μM): 0.3353 µM/s and 0.3245 µM/s and 0.3419 µM/s | Velocity ([2]; Fig. S3b, MnCl2 as metal, [NADP+] 300 μM): 0.3651 µM/s | thermal stabilisation by cosubstrates [3]: stabilise

O=C(O)CCC(=O)C(=O)O [2OG, 2-oxoglutarate]
binding to wt IDH1 [5]: bind weakly | Velocity ([7]; Fig. S2e, [2OG] 312.5 μM): 0.04369 µM/s and 0.04159 µM/s and 0.04334 µM/s | Velocity ([7]; Fig. S2e, [2OG] 625 μM): 0.08493 µM/s and 0.08598 µM/s and 0.07405 µM/s | Velocity ([7]; Fig. S2e, [2OG] 2500 μM): 0.1446 µM/s and 0.1407 µM/s and 0.1265 µM/s | Velocity ([7]; Fig. S2e, [2OG] 5000 μM): 0.1734 µM/s and 0.1435 µM/s and 0.1563 µM/s | Velocity ([7]; Fig. S2e, [2OG] 10000 μM): 0.2051 µM/s and 0.2078 µM/s and 0.1434 µM/s | Km [7, 9]: 1100 µM | Vmax [7, 9]: 200 ± 16 nM/s
